We go through 27 compounds from patent US7115642B2, “Substituted diphenyl isoxazoles, pyrazoles and oxadiazoles useful for treating HCV infection” (priority 2003, dated 2006).

As a reminder, the IC50 is the concentration needed to halve the response being measured.

The subject of the experiment is HCV replicon (5-2 Luc replicon-comprising cells). The experiment is described as follows: HCV replicon assay (luciferase). Type of experiment: cell-based, Hepatitis C virus. The note with it: 5-2 Luc replicon cells, luciferase readout; read-out: Replicon IC50. An excerpt: In one embodiment, the inhibitory activity of the compounds can be confirmed in a replicon assay that assesses the ability of a test compound to block or inhibit HCV replication in replicon cells. One example of a suitable replicon assay is the liver cell-line Huh 7-based replicon assay described in Lohmann et al., 1999, Science 285:110–113. A specific example of this replicon assay which utilizes luciferase translation is provided in the Examples Section. In one embodiment of this assay, the amount of test compound that yields a 50% reduction in translation as compared to a control cell (IC50) may be determined.
The inhibitory activity of certain exemplary compounds of the invention was confirmed using an HCV replicon assay. The HCV replicon can include such features as the HCV 5′ untranslated region including the HCV IRES, the HCV 3′ untranslated region, selected HCV genes encoding HCV polypeptides, selectable markers, and a reporter gene such as luciferase, GFP, etc. In the assay, actively dividing 5-2 Luc replicon-comprising cells (obtained from Ralf Bartenschlager; see Lohmann et al., 1999, Science 285:110–113) were seeded at a density of between about 5,000 and 7,500 cells/well onto 96 well plates (about 90 μl of cells per well) and incubated at 37° C. and 5% CO2 for 24 hours. Then, the test compound (in a volume of about 10 μl) was added to the wells at various concentrations and the cells were incubated for an additional 24 hours before luciferase assay. Briefly, the Bright-Glo reagent was diluted 1:1 with PBS and 100 μl of diluted reagent was added to each well. After 5 min of incubation at room temperature, luciferin emission was quantified with a luminometer. In this assay, the amount of test compound that yielded a 50% reduction in luciferase activity (IC50) was determined.
In TABLE 1, a value of “+” indicates an IC50 of 10 μM or less in the specified assay; a value of “−” indicates an IC50 of greater than 10 μM in the specified assay.

As for `CCNC(=O)N1CCC(N(C)c2cccc(Cl)c2-c2cc(-c3cccc(NC(=O)C(Cl)Cl)c3)on2)CC1` [Compound 584], the concentration for half-maximal inhibition (IC50) is less than 10 µM.
With `CC(=O)N1CCCC(Oc2cccc(Cl)c2-c2cc(-c3cccc(NC(=O)C(Cl)Cl)c3)on2)C1` (stereo not drawn) [Compound 585], the IC50 is less than 10 µM.
With `CS(=O)(=O)N1CCCC(Oc2cccc(Cl)c2-c2cc(-c3cccc(NC(=O)C(Cl)Cl)c3)on2)C1` (stereo not drawn) [Compound 586], the IC50 is less than 10 µM.
`CCNC(=O)N1CCCC(Oc2cccc(Cl)c2-c2cc(-c3cccc(NC(=O)C(Cl)Cl)c3)on2)C1` (stereo not drawn) [Compound 587]: the IC50 is less than 10 µM.
Regarding `O=C(Nc1cccc(-c2cc(-c3c(Cl)cccc3N3CCC(NCc4ccccn4)CC3)no2)c1)C(Cl)Cl` [Compound 588], the IC50 was less than 10 µM.
As to `CC(C)(C)OC(=O)NCC1CCN(c2cccc(Cl)c2-c2cc(-c3cccc(NC(=O)C(Cl)Cl)c3)on2)CC1` [Compound 589], the IC50 was less than 10 µM.
For the compound `COC(=O)C1CC(Oc2cccc(Cl)c2-c2cc(-c3cccc(NC(=O)C(Cl)Cl)c3)on2)CN1C(=O)OC(C)(C)C` (stereo not drawn) [Compound 590], the IC50 was less than 10 µM.
As for `COC(=O)C1CC(Oc2cccc(Cl)c2-c2cc(-c3cccc(NC(=O)C(Cl)Cl)c3)on2)CN1` (stereo not drawn) [Compound 591], the concentration for half-maximal inhibition (IC50) was less than 10 µM.
Take `CC(C)(C)OC(=O)N1CCC(Oc2cccc(Cl)c2-c2cc(-c3cccc(NC(=O)C(Cl)Cl)c3)on2)C1` (stereo not drawn) [Compound 592]: the IC50 was less than 10 µM.
To `O=C(Nc1cccc(-c2cc(-c3c(Cl)cccc3OC3CCNC3)no2)c1)C(Cl)Cl` (stereo not drawn) [Compound 593] belongs less than 10 µM; to `CC(=O)N1CCC(Oc2cccc(Cl)c2-c2cc(-c3cccc(NC(=O)C(Cl)Cl)c3)on2)C1` (stereo not drawn) [Compound 595], less than 10 µM; to `CS(=O)(=O)N1CCC(Oc2cccc(Cl)c2-c2cc(-c3cccc(NC(=O)C(Cl)Cl)c3)on2)C1` (stereo not drawn) [Compound 596], less than 10 µM.
`CCNC(=O)N1CCC(Oc2cccc(Cl)c2-c2cc(-c3cccc(NC(=O)C(Cl)Cl)c3)on2)C1` (stereo not drawn) [Compound 597]: the IC50 was less than 10 µM.
On to `C[N+](C)(C)CCOc1cccc(Cl)c1-c1cc(-c2cccc(NC(=O)C(Cl)Cl)c2)on1` [Compound 598], for which the IC50 is less than 10 µM.
For `CCNC(=O)Oc1cccc(Cl)c1-c1cc(-c2cccc(NC(=O)C(Cl)Cl)c2)on1` [Compound 600], the IC50 is less than 10 µM.
Regarding `CN(C)C(=O)Oc1cccc(Cl)c1-c1cc(-c2cccc(NC(=O)C(Cl)Cl)c2)on1` [Compound 601], the IC50 was less than 10 µM.
As to `O=C(Nc1cccc(-c2cc(-c3c(Cl)cccc3OC(=O)N3CCOCC3)no2)c1)C(Cl)Cl` [Compound 602], the IC50 was less than 10 µM.
For `O=C(Nc1cccc(-c2cc(-c3c(Cl)cccc3OP(=O)(O)O)no2)c1)C(Cl)Cl` [Compound 603], the IC50 was less than 10 µM.
As for `O=C(Nc1cccc(-c2cc(-c3c(Cl)cccc3OCc3ccncc3)no2)c1)C(Cl)Cl` [Compound 604], the IC50 is less than 10 µM.
In the case of `O=C(Nc1cccc(-c2cc(-c3c(Cl)cccc3OCc3cccnc3)no2)c1)C(Cl)Cl` [Compound 605], the IC50 is less than 10 µM.
To `CCCNC(=O)Oc1cccc(Cl)c1-c1cc(-c2cccc(NC(=O)C(Cl)Cl)c2)on1` [Compound 606] belongs less than 10 µM; to `COP(=O)(O)Oc1cccc(Cl)c1-c1cc(-c2cccc(NC(=O)C(Cl)Cl)c2)on1` [Compound 607], less than 10 µM.
Turning to `N#Cc1ccccc1-c1cc(-c2cccc(NC(=O)C(Cl)Cl)c2)on1` [Compound 610], the IC50 is less than 10 µM.
On to `CN1CCN(c2ccccc2-c2cc(-c3cccc(NC(=O)C(Cl)Cl)c3)on2)CC1` [Compound 611], for which the half-maximal inhibitory concentration (IC50) is less than 10 µM.
In the case of `O=C(Nc1cccc(-c2cc(-c3ccccc3N3CCOCC3)no2)c1)C(Cl)Cl` [Compound 612], the IC50 is less than 10 µM.
Regarding `N#Cc1cccc(F)c1-c1cc(-c2cccc(NC(=O)C(Cl)Cl)c2)on1` [Compound 613], the IC50 was less than 10 µM.
For the compound `O=C(Nc1cccc(-c2cc(-c3ccccc3N3CCN(c4ccccn4)CC3)no2)c1)C(Cl)Cl` [Compound 614], the concentration for half-maximal inhibition (IC50) was greater than 10 µM.
